A melting point compilation (Tetko et al.; mined from patent text by program, amines drawn as free bases though some values may be those of a salt)

melting point | Structure (SMILES)
135 °C | CCOC(=O)c1c(N2CCN(C(=O)c3cccs3)CC2)c2cnccc2n(Cc2cccc(F)c2)c1=O
188 to 190 °C | CCCc1nc2c(N)nc3c(c2n1CC(C)(C)OCCS(C)(=O)=O)CCCC3
265 to 267 °C | COc1cc2ncc(C#N)c(Nc3ccc(Cl)c(C(F)(F)F)c3)c2cc1OC
210 to 212 °C | CN(C)c1ccc(NC(=O)NC2CCC2)c(C(=O)NCC2CCN(C(c3ccccc3)c3ccccc3)CC2)c1
167 °C | CCCCNc1nc(N)nc(N)n1
155 to 159 °C | Cc1c(C(F)(F)F)nc(C(F)(F)F)c(C(=O)O)c1O
71 to 73 °C | CCOC(=O)c1[nH]c(CC)c(CC)c1C
121 to 122 °C | CN1C(=O)CC[C@]2(C)c3ccc(-c4ccc(F)cc4)cc3CC[C@@H]12
178 to 180 °C | CC(=O)c1ccc(-c2ccnc(Nc3ccc4c(c3)OCCO4)c2)cc1
246 to 248 °C | CC(=O)Nc1ccc(-n2c(N)nc3ccccc32)cc1
185 to 188 °C | Cc1cc(CN2CCN(c3nc(C)c(C(=O)NCc4cccnc4)s3)C2=O)no1
265 to 266 °C | O=C(O)c1cccc(-c2nc(-c3ccc(Cl)cc3)cs2)c1
187 to 189 °C | O=C(OC1COC(OC(=O)c2ccccc2)CO1)c1ccccc1 (stereo unspecified)
53 to 58 °C | COc1cccc2c1CC(COS(=O)(=O)c1ccc(C)cc1)CC2 (stereo unspecified)
158 to 159 °C | Cc1nc(C)c(Cl)c(NCc2nccc(SCCCSc3ncccn3)c2C)n1
264 to 265 °C | CC1(c2ccc([N+](=O)[O-])cc2)C(=O)Nc2cc(Cl)cc(Cl)c2C1=O (stereo unspecified)
187 °C | Cc1ccc2nc(C)c(CCN3CCC(c4noc5cc(F)ccc45)CC3)c(=O)n2c1
133 to 134 °C | CC(=O)OCc1cccc(Nc2nccc(-c3cnn(C(C)=O)c3-c3ccccc3)n2)c1
265 °C | O=C(Nc1cc2nc(-c3ccc(C(=O)C45CC6CC(CC(C6)C4)C5)cc3)[nH]c2cn1)C12CC3CC(CC(C3)C1)C2
214 to 215 °C | Cc1ccc(C(=O)Nc2c(NC(=O)CN3CCN(C)CC3)ccc3c2C(=O)c2ccccc2C3=O)cc1
64 to 67 °C | C#CCC(CC#C)NC(=O)OC(C)(C)C
110 to 112 °C | C[Si](C)(C)C1([Si](C)(C)C)c2ccccc2-c2ccccc21
164 to 165 °C | Cc1csc(C)c1C(=O)O
167 to 168 °C | CCCc1c(OCCOc2ccc3c(=O)cc(-c4ccc(C(=O)OCC)cc4)oc3c2CCC)ccc(C(C)=O)c1O

melting point | Structure (SMILES)
62 to 65 °C | Cc1ccc(S(=O)(=O)Oc2n[nH]c(CO)c2C(C)(C)C)cc1
220 °C | O=C(O)c1ccc2c(c1)Sc1ccccc1S2
166 to 167 °C | COCCOC1c2ccn3c(Br)c(C)nc3c2N(C(C)=O)C(c2ccccc2)C1OC(=O)C(C)(C)C (stereo unspecified)
> 300 °C | CCOC1c2ccccc2-c2[nH]c(=O)c(=O)[nH]c21 (stereo unspecified)
74.5 to 77 °C | CCCn1c(=O)c2ccc(NC(=O)CC3CCCC3)cc2n1Cc1ccc(C(=O)OC)cc1OC
150 to 152 °C | CC(C)(C)c1ccc(OCC(O)CN2CCC3(CC2)CSC2=C(O3)c3cc(Br)ccc3C(=O)C2=O)cc1 (stereo unspecified)
149 to 150 °C | CC(=O)NCC1CC1c1c(Cl)ccc2nn(C)cc12 (stereo unspecified)
127 to 128 °C | Oc1cnn(-c2ccc(Cl)cc2)c1
210 °C | Cc1cccc(Oc2c[nH]c(=S)[nH]c2=O)c1
123 to 125 °C | CCC1CC(N)=NN1c1ccccc1 (stereo unspecified)
148 to 151 °C | COc1cc(Nc2nc3ccnc(-c4ccc(N)cc4)c3o2)cc(OC)c1OC
209 to 212 °C | Cc1ccc(NC(=O)c2ccc(O)c([N+](=O)[O-])c2)cc1C
105 °C | Cc1cc(N(C)C)cc(C)c1C1OC(C)(C)N=C1c1ccccc1 (stereo unspecified)
209 to 211 °C | CC(C)(C)c1nc(/C=C/c2cn(-c3ccccc3)nc2O)cs1
105 to 107 °C | COC(=O)c1sc(C)c(Cl)c1O
147 °C | O=C1CC(c2cccc(Cl)c2)c2cc(C(=O)c3ccc([N+](=O)[O-])cc3)ccc2N1 (stereo unspecified)
99 to 100 °C | O=CCC(c1ccccc1)c1cc(Br)ccc1OCc1ccccc1 (stereo unspecified)
65 to 68 °C | CNCc1ccc(-c2ccc(OC)c(Br)c2)cc1
134 to 135 °C | CC(C)OCC1(C(C)(F)F)c2cc(C#N)ccc2Nc2ncccc21 (stereo unspecified)
219 to 220 °C | O=C(O)CCCOc1ccc(N2CCN(c3ccncc3)CC2)cc1[N+](=O)[O-]
122 to 124 °C | CCOC(=O)C1=Cc2cc(C)cc(Br)c2NC1C(F)(F)F (stereo unspecified)
95 to 96 °C | C=CCOC(=O)CCCS(=O)C1CC(=O)N1CC(=O)NCCCCCCc1ccc(F)cc1 (stereo unspecified)
208 to 210 °C | CCNC1N=CN(c2ccccc2C)C(=O)N1 (stereo unspecified)
234 to 238 °C | CCC12CCC3=C(CCc4cc(O)ccc43)C1CCC2O (stereo unspecified)

melting point | Structure (SMILES)
102 to 104 °C | CC[C@@H](c1ccccc1)N(Cc1ccc(C(=O)O)cc1)S(=O)(=O)c1ccc(C(=O)O)cc1
161 to 162 °C | CCN1C(=O)C(=O)N(c2ccc(Cl)cc2C)C1=S
121 to 122 °C | O=C(O)Cc1cc(-c2ccccc2)sc1NC(=O)c1ccccc1
129 to 131 °C | COc1cccc(Oc2ccccc2C(=O)O)c1
130 to 131 °C | CCOC(=O)C(=NOCSC)c1csc(NC=O)n1
202 to 206 °C | O=C(O)c1cc([N+](=O)[O-])ccc1Sc1cccc(Br)c1
258 °C | O=C(N[C@H]1CC[C@H](CCN2CCC(c3cccc4c3CCO4)CC2)CC1)c1ccc(-n2cccn2)cc1
300 °C | CC1CCc2c(C#N)ccc3c(=O)c(C(=O)O)cn1c23 (stereo unspecified)
158 to 159 °C | CC(C)(C)c1nn(-c2ccc(N)cc2Cl)c(=O)o1
139 to 140 °C | O=C(O)CN(CCc1ccccc1)C(=O)CCc1nc2c(F)c(F)cc(F)c2s1
168 to 170 °C | CCOC(=O)c1cccc(Nc2nc3ccccc3o2)c1
87 to 89 °C | Cc1cn(C(C)C(=O)N(C)C)nc1-c1ccccc1 (stereo unspecified)
51 to 54 °C | Cc1cc(C)cc(C(=O)N2CCN(C(=O)CCNC3CCN(Cc4ccccc4)CC3)C(c3ccc(Cl)c(Cl)c3)C2)c1 (stereo unspecified)
163 to 164 °C | O=C(NCCO)c1cccc(-c2ccc3ccn(-c4ccc(Cl)cc4Cl)c3c2)c1
248 to 259 °C | CCc1c(OC)nc2nc(C(N)=S)cn2c1C
167 to 170 °C | NC(=S)C=Cc1ccc(C(F)(F)F)cc1
192 to 195 °C | O=C(Nc1ccc(-n2nc(C3CC3)cc2C2CC2)nc1)c1ccncc1F
280 °C | COc1ccc2cc(-n3c(=O)[nH]c4ccccc43)cc(C)c2n1
109 to 110 °C | CC(C)(C)OC(=O)N1CCC(c2ccc(N3C[C@H](CN=[N+]=[N-])OC3=O)cc2F)CC1
180 to 185 °C | CC(C)N1CC([N+](=O)[O-])=C(NCC(=O)O)C1=O
177 to 178 °C | O=C(Nc1ccc(-n2nc(C(F)(F)F)cc2C(F)(F)F)cc1)c1ccccc1
169 to 171 °C | C[C@@H](Nc1c(-c2c(F)cc(F)cc2F)c(Cl)nc2ncnn12)C(C)(C)C
58.5 to 60 °C | CC(CC1C(C(=O)O)C1(C)C)=C(Cl)Cl (stereo unspecified)
174 °C | Cc1cc(C(O)(C(F)(F)F)C(F)(F)F)c2ccccc2c1NS(C)(=O)=O

melting point | Structure (SMILES)
200 °C | O=C(O)COc1cc(Cl)ccc1C(=O)NCc1cccc([N+](=O)[O-])c1
220 to 224 °C | O=C(NC1CCCC1)c1cc2ccncc2[nH]1
96 °C | Cn1nnc2ccc(CNNc3ccc(Cl)cc3)cc21
124 to 126 °C | CCCCc1ccc(N2CCN(C(=O)Nc3nc4ccccc4nc3OC)CC2)cc1
165 to 167 °C | S=C1NCC(C2=CCC=CC2)N1 (stereo unspecified)
78 to 80 °C | CCN(CC)CCNC(=O)c1cccc2cc3c(I)cccc3nc12
93 to 96 °C | O[C@@H](CNCCOc1ccc2oc(-c3ccon3)cc2c1)COc1ccccc1Cl
144 °C | Cc1noc(C)c1S(=O)(=O)Nc1ccc(Cl)cc1
140 to 141 °C | O=C(Oc1ccccc1)N1CCN2C(=O)OC(Cc3ccccc3)(Cc3ccccc3)C2C1 (stereo unspecified)
106 to 107 °C | O=C(c1ccccc1)c1ccc2c(c1)CC(C(=O)NCCO)C2 (stereo unspecified)
192 °C | c1ccc2c(c1)ncc1nc(C3CCCC3)[nH]c12
278 to 281 °C | O=C(Nc1ccccc1)c1ccc2c(c1)N(C1CC1)C=NS2(=O)=O
164 to 165 °C | COc1cc(Oc2cccc(C)n2)c(C=CC(=O)c2ccc(S(N)(=O)=O)cc2)cc1-c1cccs1
112 to 114 °C | CCCSCCNC(=O)n1cc(F)c(=O)[nH]c1=O
114 to 116 °C | CC(C)(C)OC(=O)C1CC(c2ccc(N)cc2)CCN1 (stereo unspecified)
> 300 °C | Cc1ccc2c(c1)C(c1ncnc3c1cnn3C1CCCC1)C(=O)N2 (stereo unspecified)
192 °C | CC(=O)OCC(=O)C1C(C)CC2C3C=C(Cl)C4=CC(=O)C=CC4(C)C3C(O)CC21C (stereo unspecified)
125 to 127 °C | Nc1ccc(Sc2cccc3cnccc23)cc1NCc1ccccc1
80 to 80.5 °C | COC(=O)CN(C)S(=O)(=O)c1ccc(Cl)cc1
70 to 71 °C | Cc1scc(CO)c1N
141 to 147 °C | Cc1c(C(O)C2CCc3c(c4ccccc4n3C)C2=O)ncn1C(c1ccccc1)(c1ccccc1)c1ccccc1 (stereo unspecified)
204 °C | Cc1ccc(C(=O)N[C@H]2CC[C@H](CCN3CCN(c4nccc5c4OCC5)CC3)CC2)cn1
171 to 173 °C | CCCCCCCN(CC(c1ccccc1)c1ccccc1)C(=O)Nc1c(C)cccc1C

Structure (SMILES) | melting point
CCCOC12CCC(=O)C3(C)Oc4c(O)ccc5c4C31CCN(C)C2C5 (stereo unspecified) | 193 to 195 °C
O=C(c1cc2cc(Br)ccc2o1)C12CC3CC(CC(C3)C1)C2 | 115 to 117 °C
COc1cc2[nH]c(C)c(CCN3CCN(NC(=O)Nc4ccccc4)CC3)c2cc1OC | 170 to 173 °C
CCCc1c(C(=O)C(C)C)c2ccc(C(N)=O)cc2n1Cc1c(Cl)cccc1Cl | 208 to 209 °C
CN1CCC2(CC1)c1ccccc1Oc1c(N)cccc12 | 173 to 174 °C
C=CCn1c(C)nc2c1CC(C(=O)OCC)C1=C2NC2(CC1=O)Cc1ccccc1C2 (stereo unspecified) | 164 to 165 °C
